Read-outs that look alike come from different tables or passages of the source.

One may read the IC50 as the midpoint of a concentration-inhibition curve.

The target in the test is T1, recombinant human ACC2 (Homo sapiens, UniProt O00763).
T1 construct: a cDNA encoding human ACC2 (27-2458) was cloned from human kidney cDNA library (Clontech); His-tag (N); made in house; host or cells: Sf-9 insect cells (Bac-to-Bac baculovirus)
As to the kind of experiment: Measurement of inhibitory activity on human ACC2 (MALDI-TOF MS, acetyl CoA to malonyl CoA conversion). The class given is biochemical.

The mark [1] stands for this setting: inhibition activity on human ACC2, Table 82, read-out: IC50.
Where [2] appears, read: inhibition activity on human ACC2, Table 84, read-out: IC50.
[3] abbreviates: inhibition activity on human ACC2, untitled table (Table 81), read-out: IC50.
[4] abbreviates: inhibition activity on human ACC2, Table 80, read-out: IC50.
Where [5] appears, read: inhibition activity on human ACC2, Table 79, read-out: IC50.

T1 sequence (O00763 27-2458): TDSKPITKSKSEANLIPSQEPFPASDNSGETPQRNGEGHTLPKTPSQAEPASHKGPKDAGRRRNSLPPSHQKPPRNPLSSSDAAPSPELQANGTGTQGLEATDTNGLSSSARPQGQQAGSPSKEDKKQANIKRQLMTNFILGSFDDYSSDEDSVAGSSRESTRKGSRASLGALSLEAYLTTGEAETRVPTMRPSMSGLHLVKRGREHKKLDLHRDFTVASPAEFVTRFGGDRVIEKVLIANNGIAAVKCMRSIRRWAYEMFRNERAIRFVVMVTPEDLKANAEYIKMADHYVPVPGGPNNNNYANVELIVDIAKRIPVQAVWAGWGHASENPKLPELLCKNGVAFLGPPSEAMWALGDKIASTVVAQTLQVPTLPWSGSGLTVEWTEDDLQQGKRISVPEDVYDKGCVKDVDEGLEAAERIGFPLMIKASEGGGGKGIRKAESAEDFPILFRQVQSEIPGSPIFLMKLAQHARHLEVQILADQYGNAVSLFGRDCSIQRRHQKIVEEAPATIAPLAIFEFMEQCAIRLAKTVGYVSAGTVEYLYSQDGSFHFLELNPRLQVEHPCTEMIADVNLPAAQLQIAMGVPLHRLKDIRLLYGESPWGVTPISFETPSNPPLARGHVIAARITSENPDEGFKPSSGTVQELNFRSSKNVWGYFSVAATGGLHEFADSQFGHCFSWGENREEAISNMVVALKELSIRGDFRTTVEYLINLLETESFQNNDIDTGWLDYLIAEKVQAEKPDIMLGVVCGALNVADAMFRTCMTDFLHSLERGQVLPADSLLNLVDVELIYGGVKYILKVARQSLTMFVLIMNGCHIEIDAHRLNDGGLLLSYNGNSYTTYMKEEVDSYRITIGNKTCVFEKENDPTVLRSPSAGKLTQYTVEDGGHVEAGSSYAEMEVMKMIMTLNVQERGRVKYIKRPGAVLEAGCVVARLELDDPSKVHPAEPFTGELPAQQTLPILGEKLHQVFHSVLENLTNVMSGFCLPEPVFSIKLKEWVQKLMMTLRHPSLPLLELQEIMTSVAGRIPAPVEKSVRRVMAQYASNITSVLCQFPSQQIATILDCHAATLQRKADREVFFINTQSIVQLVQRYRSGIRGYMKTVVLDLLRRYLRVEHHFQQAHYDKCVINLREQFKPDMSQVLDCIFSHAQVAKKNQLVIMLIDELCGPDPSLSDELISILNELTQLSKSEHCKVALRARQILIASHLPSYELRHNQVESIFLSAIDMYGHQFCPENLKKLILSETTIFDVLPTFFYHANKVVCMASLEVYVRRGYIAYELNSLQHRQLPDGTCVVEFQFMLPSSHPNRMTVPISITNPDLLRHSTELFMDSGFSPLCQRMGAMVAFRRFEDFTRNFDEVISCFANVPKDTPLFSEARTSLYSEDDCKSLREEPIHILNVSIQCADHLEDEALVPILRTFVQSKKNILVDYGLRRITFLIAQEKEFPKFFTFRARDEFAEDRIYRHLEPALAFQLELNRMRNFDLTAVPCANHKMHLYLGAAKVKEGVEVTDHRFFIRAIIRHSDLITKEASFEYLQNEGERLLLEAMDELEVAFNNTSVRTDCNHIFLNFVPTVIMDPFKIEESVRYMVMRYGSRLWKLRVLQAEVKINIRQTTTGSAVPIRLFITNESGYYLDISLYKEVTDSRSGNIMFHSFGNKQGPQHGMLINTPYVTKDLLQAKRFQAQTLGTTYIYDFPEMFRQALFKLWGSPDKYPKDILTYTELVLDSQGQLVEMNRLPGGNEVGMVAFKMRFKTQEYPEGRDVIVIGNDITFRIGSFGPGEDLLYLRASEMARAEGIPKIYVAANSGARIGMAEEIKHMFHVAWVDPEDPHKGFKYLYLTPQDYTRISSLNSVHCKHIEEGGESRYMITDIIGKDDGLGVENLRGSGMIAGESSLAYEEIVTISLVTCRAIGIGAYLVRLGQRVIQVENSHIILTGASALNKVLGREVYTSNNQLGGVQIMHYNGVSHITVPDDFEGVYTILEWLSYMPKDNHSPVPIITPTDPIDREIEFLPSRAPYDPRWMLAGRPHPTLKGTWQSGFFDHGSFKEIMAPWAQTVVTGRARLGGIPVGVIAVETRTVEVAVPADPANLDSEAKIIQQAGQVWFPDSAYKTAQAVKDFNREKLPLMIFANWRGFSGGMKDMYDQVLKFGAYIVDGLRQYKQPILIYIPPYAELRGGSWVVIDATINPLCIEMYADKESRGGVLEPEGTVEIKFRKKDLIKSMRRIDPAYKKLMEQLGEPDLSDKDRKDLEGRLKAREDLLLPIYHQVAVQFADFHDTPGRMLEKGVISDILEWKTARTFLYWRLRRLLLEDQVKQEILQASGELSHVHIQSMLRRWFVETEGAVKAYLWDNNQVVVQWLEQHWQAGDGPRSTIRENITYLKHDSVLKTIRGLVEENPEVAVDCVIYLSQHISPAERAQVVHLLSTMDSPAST

Take `CC(=O)N[C@@H](C)/C=C/c1ccc(Oc2ccc(C3=CCC4(CC3)CC4)cc2Cl)nc1` [Compound I-355]: under setting [1], the IC50 was found to be 19 nM.

For `CC(=O)N[C@@H](C)/C=C/c1ccc(Oc2ccc(CC(C)(C)C)cc2Cl)cn1` [Compound I-512], the IC50 under setting [2] is 140 nM.

Turning to `CCCc1ccc(Oc2ccc(/C=C/[C@H](C)NC(C)=O)cn2)c(C(F)(F)F)c1` [Compound I-439], the IC50 under setting [2] stood at 82 nM.

For the compound `CC(=O)N[C@@H](C)/C=C/c1ccc(Oc2ccc(F)c(OC(C)C)c2)nc1` [Compound I-281], under setting [3], the IC50 is 130 nM.

Consider `CC(=O)N[C@@H](C)/C=C/c1cnc(Oc2ccc(OCC3CC3)cc2Cl)c(C)c1` [Compound I-443], for which the IC50 under setting [2] is 22 nM.

For `COc1ccc(F)c(Oc2ccc(/C=C/[C@H](C)NC(C)=O)cn2)c1` [Compound I-258], under setting [3], the IC50 was determined as 450 nM.

Take `CC(=O)N[C@@H](C)/C=C/c1ccc(Oc2ccc3nc(C)sc3c2)nc1` [Compound I-425]: the IC50 stood at 40 nM.

For the compound `CC(=O)N[C@@H](C)/C=C/c1ccc(Oc2ccc(C(=O)NCC3CC3)cc2Cl)nc1` [Compound I-357], under setting [1], the IC50 is 440 nM.

`CCN1CCc2cc(Oc3ccc(/C=C/[C@H](C)NC(C)=O)cn3)ccc2C1=O` [Compound I-480]: under setting [2], the IC50 came out at 520 nM.

For the compound `CCN1CCN(CCC(=O)N[C@@H](C)/C=C/c2cnc(Oc3ccc(OCC4CC4)cc3Cl)s2)CC1` [Compound I-124], under setting [4], the IC50 came to 1400 nM.

As to `COc1cc(F)cc(Oc2ccc(/C=C/[C@H](C)NC(C)=O)cn2)c1` [Compound I-257], the IC50 under setting [3] was determined as 160 nM.

For `CC(=O)N[C@@H](C)/C=C/c1ccc(Oc2ccc(C3=CC(C)(C)OC(C)(C)C3)cc2Cl)nc1` [Compound I-354], the concentration for half-maximal inhibition (IC50) under setting [1] was found to be 170 nM.

Regarding `CCOc1ccc(Oc2ccc(/C=C/[C@H](C)NC(=O)C(F)F)cn2)c(Cl)c1` [Compound I-179], the IC50 under setting [4] is 42 nM.

Take `C[C@@H](/C=C/c1cnc(Oc2ccc(OCC3CC3)cc2Cl)s1)NC(=O)CCCCCCNC(=O)OC(C)(C)C` [Compound I-106]: the IC50 under setting [5] turned out to be 440 nM.

Take `CCN1Cc2ccc(C(=O)N[C@@H](C)/C=C/c3cnc(Oc4ccc(OCC5CC5)cc4Cl)s3)cc2C1=O` [Compound I-154]: the IC50 under setting [4] amounted to 2700 nM.

Regarding `CCOc1ccc(C(F)(F)c2ccc(/C=C/[C@H](C)NC(N)=O)cn2)c(Cl)c1` [Compound I-188], the IC50 under setting [4] came to 1800 nM.

`CC(=O)N[C@@H](C)/C=C/c1ccc(Oc2ccc(SCC(C)C)cc2Cl)nc1` [Compound I-364]: the IC50 under setting [1] was 13 nM.

In the case of `C[C@@H](/C=C/c1cnn(Cc2ccc(OCC3CC3)cc2Cl)c1)NC(=O)c1ccnc(C(N)=O)c1` [Compound I-235], under setting [4], the IC50 was determined as 300 nM.

Take `C[C@@H](/C=C/c1cnc(Oc2ccc(OCC3CC3)cc2Cl)s1)NC(=O)c1ccnc(C(=O)NCCN2CCOCC2)c1` [Compound I-208]: the IC50 under setting [4] amounted to 4.9 nM.

On to `CCOc1ccc(Oc2ncc(/C=C/[C@H](C)NC(C)=O)cc2F)c(Cl)c1` [Compound I-446], for which the IC50 under setting [2] was determined as 73 nM.

Consider `CC/C(=C\c1ccc(Oc2cnc(OCC3CC3)cc2Cl)nc1)C(C)NC(C)=O` (stereo not drawn) [Compound I-295], for which the IC50 under setting [3] came out at 2800 nM.

As to `CCOc1ccc(Oc2ccc(/C=C/[C@H](C)NC(C)=O)cn2)c(Cl)c1` [Compound I-13], the IC50 under setting [5] worked out at 52 nM.

Turning to `CC(=O)N[C@@H](C)/C=C/c1cnc(Oc2ccc(NC(=O)OC(C)(C)C)cc2Cl)nc1` [Compound I-53], the IC50 under setting [5] was 940 nM.

On to `C[C@@H](/C=C/c1cnc(Oc2ccc(OCC3CC3)cc2Cl)s1)NC(=O)CCO` [Compound I-125], for which the IC50 under setting [4] came to 320 nM.

As to `CC(=O)N[C@@H](C)/C=C/c1ccc(Oc2ccc(-c3ccc(C#N)cc3)c(Cl)c2)nc1` [Compound I-377], the IC50 under setting [1] is 39 nM.

Take `CC(=O)N[C@@H](C)/C=C/c1cnn(Cc2c(F)cc(OCC3CC3)cc2F)c1` [Compound I-261]: under setting [3], the IC50 worked out at 3000 nM.

`CCCc1ccc(Oc2ncc(/C=C/[C@H](C)NC(C)=O)cn2)cc1Cl` [Compound I-324]: under setting [1], the IC50 stood at 170 nM.

`CCOc1ccc(Oc2cnc(/C=C/[C@H](C)NC(C)=O)cn2)cc1Cl` [Compound I-299]: under setting [3], the IC50 is 38 nM.

Take `CC(=O)N[C@@H](C)/C=C/c1ccc(Oc2ccc3c(c2)OCCO3)nc1` [Compound I-472]: under setting [2], the 50% inhibitory concentration (IC50) was found to be 37 nM.

Regarding `CCOc1cc(Cl)cc(Oc2ccc(/C=C/[C@H](C)NC(C)=O)cn2)c1` [Compound I-45], the IC50 under setting [5] amounted to 83 nM.

Regarding `CC(=O)N[C@@H](C)/C=C/c1ccc(Oc2cc(Cl)cc(OCC3CC3)c2)nc1` [Compound I-43], the IC50 under setting [5] stood at 80 nM.

For `CCc1ccc(Oc2ccc(/C=C/[C@H](C)NC(C)=O)cn2)c(Cl)c1` [Compound I-339], the IC50 under setting [1] stood at 91 nM.

On to `CCC(F)(F)c1ccc(Oc2ccc(/C=C/[C@H](C)NC(C)=O)cn2)c(Cl)c1` [Compound I-389], for which the IC50 was determined as 24 nM.

Consider `CC(=O)N[C@@H](C)/C=C/c1cnc(Oc2ccc(NC(C)C)cc2Cl)nc1` [Compound I-55], for which, under setting [5], the IC50 amounted to 4500 nM.

Consider `CCCc1ccc(Oc2ccc(/C=C/[C@H](C)NC(C)=O)cc2)nc1` [Compound I-368], for which the IC50 under setting [1] stood at 110 nM.

`CC(=O)N[C@@H](C)/C=C/c1ccc(Oc2ccc(OCC(C)C)cc2Cl)nc1` [Compound I-36]: the IC50 under setting [5] is 6.5 nM.

As for `CC(=O)N[C@@H](C)/C=C/c1ccc(Oc2ccc3c(c2)OC(F)(F)C(F)(F)O3)nc1` [Compound I-482], under setting [2], the IC50 is 8.1 nM.

Consider `CC(=O)N[C@@H](C)/C=C/c1ccc(Oc2ccc(NCC3CC3)c(Cl)c2)nc1` [Compound I-24], for which the IC50 under setting [5] amounted to 4.4 nM.

As to `C[C@@H](/C=C/c1cnc(Oc2ccc(OCC3CC3)cc2Cl)s1)NC(=O)NCC(F)F` [Compound I-192], the IC50 under setting [4] was found to be 81 nM.

With `CCCc1ccc(Oc2ccc(/C=C/[C@H](C)NC(=O)Cc3nccs3)cn2)c(Cl)c1` [Compound I-423], the 50% inhibitory concentration (IC50) is 3000 nM.

`C[C@@H](/C=C/c1cnc(Oc2ccc(OCC3CC3)cc2Cl)s1)NC(=O)Cc1cccnc1` [Compound I-77]: under setting [5], the IC50 came out at 48 nM.

Consider `CC(=O)N[C@@H](C)/C=C/c1ccc(Oc2ccc(CC3CC3)cc2Cl)nc1` [Compound I-380], for which the IC50 is 22 nM.

With `CC(=O)N[C@@H](C)/C=C/c1ccc(Oc2ccc(Cl)cc2Cl)nc1` [Compound I-273], under setting [3], the IC50 came to 99 nM.

With `CCC1(c2ccc(Oc3ccc(/C=C/[C@H](C)NC(C)=O)cn3)c(Cl)c2)COC1` [Compound I-400], the IC50 came out at 3200 nM.

On to `CC(=O)N[C@@H](C)/C=C/c1ccc(Oc2ccc(Oc3ccncc3)cc2Cl)nc1` [Compound I-465], for which the IC50 under setting [2] was 120 nM.

As for `CCCc1ccc(Oc2ccc(/C=C/[C@H](C)NC(=O)Cc3ccccn3)cn2)c(Cl)c1` [Compound I-422], the IC50 was 1300 nM.

Consider `CCOC(=O)c1cnc(Oc2ccc(Oc3ccc(/C=C/[C@H](C)NC(C)=O)cn3)c(Cl)c2)s1` [Compound I-441], for which, under setting [2], the IC50 stood at 690 nM.

Take `CC(=O)N[C@@H](C)/C=C/c1cnc(Oc2ccc3nc(C(F)(F)F)sc3c2Cl)cn1` [Compound I-510]: the IC50 under setting [2] turned out to be 6 nM.

Consider `CC(=O)N[C@@H](C)/C=C/c1ccc(Oc2ccc3c(c2)CC(C)(C)O3)nc1` [Compound I-498], for which the IC50 under setting [2] was 27 nM.

Regarding `CC(=O)N[C@@H](C)/C=C/c1ccc(Oc2ccc(-c3ccccc3C)cc2Cl)nc1` [Compound I-342], the IC50 under setting [1] amounted to 120 nM.

With `CCCc1ccc(Cl)c(Oc2ccc(/C=C/[C@H](C)NC(C)=O)cn2)c1` [Compound I-475], the IC50 under setting [2] is 170 nM.

As to `CCCc1ccc(Oc2ccc(/C=C/[C@H](C)NC(C)=O)cn2)c(C#N)c1` [Compound I-403], the IC50 is 450 nM.

As for `CCCc1ccc(Oc2ccc(/C=C/[C@H](C)NC(C)=O)cn2)nc1` [Compound I-336], the IC50 under setting [1] was 2000 nM.

On to `CC(=O)N[C@@H](C)/C=C/c1ccc(Oc2ccc3c(c2)C(=O)N(CC2CC2)CC3)nc1` [Compound I-518], for which the IC50 under setting [2] stood at 800 nM.

In the case of `CC(=O)N[C@@H](C)/C=C/c1ccc(Oc2ccc3c(C)nsc3c2)nc1` [Compound I-486], the IC50 under setting [2] turned out to be 110 nM.

With `CC(=O)N[C@@H](C)/C=C/c1ccc(Oc2cc3c(cc2Cl)CCC3)nc1` [Compound I-426], the IC50 was found to be 26 nM.

As for `C[C@@H](/C=C/c1cnc(Oc2ccc(OCC3CC3)cc2Cl)s1)NC(=O)c1ccnc(NCCN2CCCC2)c1` [Compound I-244], under setting [4], the IC50 is 36 nM.

In the case of `CCCc1cc(C)c(Oc2ccc(/C=C/[C@H](C)NC(C)=O)cn2)cn1` [Compound I-323], under setting [1], the IC50 is 960 nM.

As to `C[C@@H](/C=C/c1cnc(Oc2ccc(OCC3CC3)cc2Cl)s1)NC(=O)c1cccc(C2=NCCO2)c1` [Compound I-143], under setting [4], the IC50 worked out at 800 nM.

As to `CC(=O)N[C@@H](C)/C=C/c1ccc(Oc2ccc(OCC3CC3)cc2Cl)cc1` [Compound I-57], the IC50 under setting [5] worked out at 2.2 nM.

Consider `CC(=O)N[C@@H](C)/C=C/c1ccc(Oc2ccc(-c3ncc(F)cn3)cc2Cl)nc1` [Compound I-454], for which the concentration for half-maximal inhibition (IC50) under setting [2] is 37 nM.

In the case of `CC(=O)N[C@@H](C)/C=C/c1ccc(Oc2cnc(OCC3CC3)nc2)nc1` [Compound I-492], under setting [2], the IC50 stood at 80 nM.

With `CCc1nc2ccc(Oc3ccc(/C=C/[C@H](C)NC(C)=O)cn3)cc2o1` [Compound I-495], the IC50 under setting [2] was 21 nM.

Consider `CC(=O)N[C@@H](C)/C=C/c1ccc(Oc2ccc(Oc3cccnc3)cc2Cl)nc1` [Compound I-464], for which the IC50 under setting [2] worked out at 120 nM.

`CCCc1cncc(Oc2ccc(/C=C/[C@H](C)NC(C)=O)cn2)c1` [Compound I-302]: under setting [3], the IC50 was determined as 510 nM.

For the compound `CC(=O)N[C@@H](C)/C=C/c1ccc(Oc2ccc(-c3ccc(C#N)cc3)cc2)nc1` [Compound I-515], under setting [2], the IC50 turned out to be 860 nM.

Turning to `CCOc1ccc(C(F)(F)c2ccc(/C=C/[C@H](C)NC(C)=O)cn2)c(Cl)c1` [Compound I-62], the IC50 under setting [5] was determined as 310 nM.

Take `CCCOc1ccc(Oc2ncc(/C=C/[C@H](C)NC(=O)c3ccncc3)s2)c(Cl)c1` [Compound I-169]: under setting [4], the IC50 turned out to be 370 nM.

`CCOc1ccc(Oc2ncc(/C=C/[C@H](C)NC(C)=O)cc2C)c(Cl)c1` [Compound I-442]: under setting [2], the IC50 came out at 65 nM.

The record behind these values is patent US20150246938A1, “NOVEL OLEFIN DERIVATIVE” (SHIONOGI & CO., LTD., priority 2011, published 2015).
